# Source: patent publication US20160199351A1, “COMPOSITIONS AND METHODS FOR INHIBITING FUNGAL INFECTIONS” (priority 2015, published 2016)
# Like-named read-outs stand apart in the source and are kept apart here.
# Assays:
# C. parapsilosis = assay: MIC against Candida species (Table 4)
# Apophysomyces = assay: MIC (Table 5)
# Lomentospora prolificans = assay: MIC, CLSI M38-A2 broth dilution (Table 1); type: cell-based; settings: isolate LP1, 48 hours
# C. guilliermondii = assay: MIC against Candida species (Table 4); settings: Meyerozyma guilliermondii
structure (smiles),measurement,setting,value
"NCC(=O)Nc1ccc(-n2nc(C(F)(F)F)cc2-c2ccc3c(ccc4ccccc43)c2)cc1 [AR-12, 2-amino-N-(4-(5-(phenanthren-2-yl)-3-(trifluoromethyl)-1H-pyrazol-1-yl)phenyl)acetamide]",MIC50,"C. parapsilosis; 24 h, isolate CP-1, 24 hrs",2 µg/mL
same,MIC50,"C. parapsilosis; 24 h, isolate CP-2, 24 hrs",2 µg/mL
same,MIC50,"C. parapsilosis; 24 h, isolate CP-3, 24 hrs",2 µg/mL
same,MIC50,"C. parapsilosis; 24 h, isolate CP-4, 24 hrs",2 µg/mL
same,MIC50,"C. parapsilosis; 24 h, isolate CP-5, 24 hrs",2 µg/mL
same,MIC50,"C. parapsilosis; 24 h, isolate CP-6, 24 hrs",2 µg/mL
same,MIC50,"C. parapsilosis; 24 h, isolate CP-7, 24 hrs",2 µg/mL
same,MIC50,"C. parapsilosis; 24 h, isolate QC",2 µg/mL
same,MIC,"C. parapsilosis; 24 h, read-out: MIC 100%, isolate CP-1, 24 hrs",2 µg/mL
same,MIC,"C. parapsilosis; 24 h, read-out: MIC 100%, isolate CP-2, 24 hrs",4 µg/mL
same,MIC,"C. parapsilosis; 24 h, read-out: MIC 100%, isolate CP-3, 24 hrs",4 µg/mL
same,MIC,"C. parapsilosis; 24 h, read-out: MIC 100%, isolate CP-4, 24 hrs",4 µg/mL
same,MIC,"C. parapsilosis; 24 h, read-out: MIC 100%, isolate CP-5, 24 hrs",2 µg/mL
same,MIC,"C. parapsilosis; 24 h, read-out: MIC 100%, isolate CP-6, 24 hrs",4 µg/mL
same,MIC,"C. parapsilosis; 24 h, read-out: MIC 100%, isolate CP-7, 24 hrs",2 µg/mL
same,MIC,"C. parapsilosis; 24 h, read-out: MIC 100%, isolate QC, 24 hrs",2 µg/mL
same,MIC50,"C. parapsilosis; 48 h, isolate CP-1, 48 hrs",4 µg/mL
same,MIC50,"C. parapsilosis; 48 h, isolate CP-2, 48 hrs",4 µg/mL
same,MIC50,"C. parapsilosis; 48 h, isolate CP-3, 48 hrs",4 µg/mL
same,MIC50,"C. parapsilosis; 48 h, isolate CP-4, 48 hrs",4 µg/mL
same,MIC50,"C. parapsilosis; 48 h, isolate CP-5, 48 hrs",4 µg/mL
same,MIC50,"C. parapsilosis; 48 h, isolate CP-6, 48 hrs",4 µg/mL
same,MIC50,"C. parapsilosis; 48 h, isolate CP-7, 48 hrs",2 µg/mL
same,MIC50,"C. parapsilosis; 48 h, isolate QC",2 µg/mL
same,MIC,"C. parapsilosis; 48 h, read-out: MIC 100%, isolate CP-1, 48 hrs",4 µg/mL
same,MIC,"C. parapsilosis; 48 h, read-out: MIC 100%, isolate CP-2, 48 hrs",4 µg/mL
same,MIC,"C. parapsilosis; 48 h, read-out: MIC 100%, isolate CP-3, 48 hrs",4 µg/mL
same,MIC,"C. parapsilosis; 48 h, read-out: MIC 100%, isolate CP-4, 48 hrs",4 µg/mL
same,MIC,"C. parapsilosis; 48 h, read-out: MIC 100%, isolate CP-5, 48 hrs",4 µg/mL
same,MIC,"C. parapsilosis; 48 h, read-out: MIC 100%, isolate CP-6, 48 hrs",4 µg/mL
same,MIC,"C. parapsilosis; 48 h, read-out: MIC 100%, isolate CP-7, 48 hrs",4 µg/mL
same,MIC,"C. parapsilosis; 48 h, read-out: MIC 100%, isolate QC, 48 hrs",4 µg/mL
same,MIC50,Apophysomyces,4 µg/mL
same,MIC50,Apophysomyces; 24 h,2 µg/mL
same,MIC,"Apophysomyces; 24 h, read-out: MIC 100%, isolate AE-1, 24 hrs",4 µg/mL
same,MIC,"Apophysomyces; 24 h, read-out: MIC 100%, isolate AE-2, 24 hrs",4 µg/mL
same,MIC 50%,"Apophysomyces; isolate AE-2, 48/72 hrs",4 µg/mL
same,MIC 50%,"Apophysomyces; isolate AE-2, 24 hrs",2 µg/mL
same,MIC,"Apophysomyces; read-out: MIC 100%, isolate AE-1, 48/72 hrs",4 µg/mL
same,MIC,"Apophysomyces; read-out: MIC 100%, isolate AE-2, 48/72 hrs",4 µg/mL
same,MIC 50%,Lomentospora prolificans,2 gg/m1
same,MIC 100%,Lomentospora prolificans,2 gg/m1
same,MIC50,"C. guilliermondii; 24 h, isolate Cgu-1, 24 hrs",2 µg/mL
same,MIC50,"C. guilliermondii; 24 h, isolate Cgu-2, 24 hrs",2 µg/mL
same,MIC50,"C. guilliermondii; 24 h, isolate Cgu-3, 24 hrs",2 µg/mL
same,MIC50,"C. guilliermondii; 24 h, isolate Cgu-4, 24 hrs",2 µg/mL
same,MIC50,"C. guilliermondii; 24 h, isolate Cgu-5, 24 hrs",4 µg/mL
same,MIC50,"C. guilliermondii; 24 h, isolate Cgu-6, 24 hrs",4 µg/mL
same,MIC50,"C. guilliermondii; 24 h, isolate Cgu-7, 24 hrs",2 µg/mL
same,MIC,"C. guilliermondii; 24 h, read-out: MIC 100%, isolate Cgu-1, 24 hrs",2 µg/mL
same,MIC,"C. guilliermondii; 24 h, read-out: MIC 100%, isolate Cgu-2, 24 hrs",2 µg/mL
same,MIC,"C. guilliermondii; 24 h, read-out: MIC 100%, isolate Cgu-3, 24 hrs",2 µg/mL
same,MIC,"C. guilliermondii; 24 h, read-out: MIC 100%, isolate Cgu-4, 24 hrs",2 µg/mL
same,MIC,"C. guilliermondii; 24 h, read-out: MIC 100%, isolate Cgu-5, 24 hrs",4 µg/mL
same,MIC,"C. guilliermondii; 24 h, read-out: MIC 100%, isolate Cgu-6, 24 hrs",4 µg/mL
same,MIC,"C. guilliermondii; 24 h, read-out: MIC 100%, isolate Cgu-7, 24 hrs",2 µg/mL
same,MIC50,"C. guilliermondii; 48 h, isolate Cgu-1, 48 hrs",4 µg/mL
same,MIC50,"C. guilliermondii; 48 h, isolate Cgu-2, 48 hrs",2 µg/mL
same,MIC50,"C. guilliermondii; 48 h, isolate Cgu-3, 48 hrs",2 µg/mL
same,MIC50,"C. guilliermondii; 48 h, isolate Cgu-4, 48 hrs",2 µg/mL
same,MIC50,"C. guilliermondii; 48 h, isolate Cgu-5, 48 hrs",4 µg/mL
same,MIC50,"C. guilliermondii; 48 h, isolate Cgu-6, 48 hrs",4 µg/mL
